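Step 1: Grow cells in 96-well plates. Step 2: Expose to compound for 48 hours at 5 concentrations. Step 3: Interpolate endpoints linearly; if unreached, use highest concentration. Here, GI50 denotes the concentration required for 50% inhibition of growth.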 Calls of active or inactive are those of the source. Rule as the data show it: active = GI50 up to about 1.1 µM and inactive = higher.
Tests used:
Experiment in all cases: NCI tumour cell line growth inhibition, 48 h
COLO 205 = tested on: COLO 205
DMS-114 = tested on: DMS-114
HT-29 = tested on: HT-29
IGROV-1 = tested on: IGROV-1
NCI-H226 = tested on: NCI-H226
OVCAR-3 = tested on: OVCAR-3
OVCAR-4 = tested on: OVCAR-4
OVCAR-5 = tested on: OVCAR-5
OVCAR-8 = tested on: OVCAR-8
RPMI-8226 = tested on: RPMI-8226
SK-MEL-28 = tested on: SK-MEL-28
SK-MEL-2 = tested on: SK-MEL-2
SK-OV-3 = tested on: SK-OV-3
SN12C = tested on: SN12C
SNB-19 = tested on: SNB-19
SNB-78 = tested on: SNB-78
XF498 = tested on: XF498
786-0 = tested on: 786-0
A498 = tested on: A498
A549 = tested on: A549
ACHN = tested on: ACHN
CCRF-CEM = tested on: CCRF-CEM
DLD-1 = tested on: DLD-1
DMS-273 = tested on: DMS-273
EKVX = tested on: EKVX
HCC 2998 = tested on: HCC 2998
HCT-116 = tested on: HCT-116
HCT-15 = tested on: HCT-15
HL-60 = tested on: HL-60
HOP-18 = tested on: HOP-18
HOP-62 = tested on: HOP-62
HOP-92 = tested on: HOP-92
K562 = tested on: K562
KM-20L2 = tested on: KM-20L2
KM12 = tested on: KM12
LOX IMVI = tested on: LOX IMVI
LXFL 529 = tested on: LXFL 529
M14 = tested on: M14
M19-MEL = tested on: M19-MEL
MOLT-4 = tested on: MOLT-4
Malme-3M = tested on: Malme-3M
NCI-H23 = tested on: NCI-H23
NCI-H460 = tested on: NCI-H460
NCI-H522 = tested on: NCI-H522
RXF 393 = tested on: RXF 393
SF-268 = tested on: SF-268
SF-295 = tested on: SF-295
SNB-75 = tested on: SNB-75
SW-620 = tested on: SW-620
TK-10 = tested on: TK-10
U-251 = tested on: U-251
UACC-257 = tested on: UACC-257
UACC-62 = tested on: UACC-62
UO-31 = tested on: UO-31

In the case of `COc1ccc2c([nH]c3cc(O)c(C)cc32)c1CC=C(C)C`, the GI50 (COLO 205) is reported as > 25 µM (inactive), the GI50 (DMS-114) is reported as 20.9 µM (inactive) and the GI50 (HT-29) is reported as 7.24 µM (inactive). The GI50 (IGROV-1) was 23.1 µM (inactive), the GI50 (NCI-H226) was > 25 µM (inactive) and the GI50 (OVCAR-3) was 5.32 µM (inactive). The GI50 (OVCAR-4) was 22.5 µM (inactive), the GI50 (OVCAR-5) was > 25 µM (inactive) and the GI50 (OVCAR-8) was 4.42 µM (inactive). The GI50 (RPMI-8226) was 8.38 µM (inactive), the GI50 (SK-MEL-28) was > 25 µM (inactive) and the GI50 (SK-MEL-2) was > 25 µM (inactive). For the same compound, the GI50 (SK-OV-3) was > 25 µM (inactive), the GI50 (SN12C) was 5.04 µM (inactive) and the GI50 (SNB-19) was > 25 µM (inactive). The GI50 (SNB-78) was 11.5 µM (inactive) and the GI50 (XF498) was > 25 µM (inactive).
For `C#CCN(N=O)C(=O)NC(CCCCNC(=O)OCc1ccccc1)C(=O)OCc1ccccc1` (centres undefined), the GI50 (786-0) was 17.8 µM (inactive), the GI50 (A498) was > 100 µM (inactive) and the GI50 (A549) was 76.2 µM (inactive). For the same compound, the GI50 (ACHN) was 55.5 µM (inactive), the GI50 (CCRF-CEM) was 17.5 µM (inactive) and the GI50 (COLO 205) was 28.5 µM (inactive). For the same compound, the GI50 (DLD-1) was 20.1 µM (inactive), the GI50 (DMS-114) was 19.8 µM (inactive) and the GI50 (DMS-273) was 43.9 µM (inactive). For the same compound, the GI50 (EKVX) was 22.7 µM (inactive), the GI50 (HCC 2998) was 31.5 µM (inactive) and the GI50 (HCT-116) was 33.8 µM (inactive). The GI50 (HCT-15) was 20.8 µM, the GI50 (HL-60) was 17.3 µM (inactive) and the GI50 (HOP-18) was 20 µM (inactive). For the same compound, the GI50 (HOP-62) was > 100 µM (inactive), the GI50 (HOP-92) was 15.7 µM (inactive) and the GI50 (HT-29) was 21.2 µM (inactive). The GI50 (IGROV-1) was > 100 µM (inactive), the GI50 (K562) was 20.5 µM (inactive) and the GI50 (KM-20L2) was 54.6 µM (inactive). The GI50 (KM12) was 77.3 µM (inactive), the GI50 (LOX IMVI) was 25.5 µM (inactive) and the GI50 (LXFL 529) was 17 µM (inactive). The GI50 (M14) was 21.4 µM (inactive), the GI50 (M19-MEL) was 34.2 µM (inactive) and the GI50 (MOLT-4) was 16.8 µM (inactive). The GI50 (Malme-3M) was 28.2 µM (inactive), the GI50 (NCI-H23) was 67.6 µM (inactive) and the GI50 (NCI-H460) was 61 µM (inactive). The GI50 (NCI-H522) was 13.9 µM (inactive), the GI50 (OVCAR-3) was 36.1 µM (inactive) and the GI50 (OVCAR-4) was 24.7 µM (inactive). For the same compound, the GI50 (OVCAR-5) was 24.5 µM (inactive), the GI50 (OVCAR-8) was 17.4 µM (inactive) and the GI50 (RPMI-8226) was 18.7 µM (inactive). For the same compound, the GI50 (RXF 393) was 46.7 µM (inactive), the GI50 (SF-268) was 47 µM (inactive) and the GI50 (SF-295) was 55.5 µM (inactive). The GI50 (SK-MEL-28) was 26.1 µM (inactive), the GI50 (SK-MEL-2) was 37.8 µM (inactive) and the GI50 (SK-OV-3) was > 100 µM (inactive). For the same compound, the GI50 (SN12C) was 28.4 µM (inactive), the GI50 (SNB-19) was 47.2 µM (inactive) and the GI50 (SNB-75) was 33.5 µM (inactive). For the same compound, the GI50 (SNB-78) was 34.1 µM (inactive), the GI50 (SW-620) was 23.3 µM (inactive) and the GI50 (TK-10) was 27.7 µM (inactive). The GI50 (U-251) was 27.9 µM (inactive), the GI50 (UACC-257) was 28.1 µM (inactive) and the GI50 (UACC-62) was 32.7 µM (inactive). The GI50 (UO-31) was 30.8 µM (inactive).
